{"source": "paper PMC9234961", "about": "(Journal of Medicinal Chemistry, 2022)", "key": {"[1]": {"target": "kinases (468) (Homo sapiens, UniProt Q9HBH9)", "details": "MKNK2; 1000 nM"}, "[2]": {"target": "kinases (468) (Homo sapiens, UniProt O94921)", "details": "PFTK1 (CDK14); 1000 nM"}, "[3]": {"target": "kinases (468) (Homo sapiens, UniProt P21127)", "details": "CDC2L1 (CDK11B); 1000 nM"}, "[4]": {"target": "kinases (468) (Homo sapiens, UniProt Q13131)", "sequence (Q13131 whole entry)": "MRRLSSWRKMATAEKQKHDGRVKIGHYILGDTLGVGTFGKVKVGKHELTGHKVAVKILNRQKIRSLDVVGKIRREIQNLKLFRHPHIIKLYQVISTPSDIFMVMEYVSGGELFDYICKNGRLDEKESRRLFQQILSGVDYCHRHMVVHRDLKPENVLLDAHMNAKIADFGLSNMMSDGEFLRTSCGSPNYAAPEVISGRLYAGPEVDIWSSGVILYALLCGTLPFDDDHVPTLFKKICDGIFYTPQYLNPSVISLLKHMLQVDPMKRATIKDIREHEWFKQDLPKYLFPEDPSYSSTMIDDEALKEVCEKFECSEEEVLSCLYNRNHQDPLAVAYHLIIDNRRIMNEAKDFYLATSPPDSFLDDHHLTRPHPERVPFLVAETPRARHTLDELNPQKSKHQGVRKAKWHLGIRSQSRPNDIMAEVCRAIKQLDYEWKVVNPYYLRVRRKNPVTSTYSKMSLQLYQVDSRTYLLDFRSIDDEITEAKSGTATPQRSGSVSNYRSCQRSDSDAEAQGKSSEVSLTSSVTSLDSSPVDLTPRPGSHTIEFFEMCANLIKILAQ", "details": "AMPK-alpha1 (PRKAA1); 1000 nM"}, "[5]": {"target": "kinases (468) (Homo sapiens, UniProt P49840)", "details": "GSK3A; 1000 nM"}, "[6]": {"test_system": "kinases (468)"}, "[7]": {"target": "kinases (468) (Homo sapiens, UniProt P10721, T670I/V559D)", "details": "KIT(V559D,T670I); 1000 nM"}, "[8]": {"target": "kinases (468) (Homo sapiens, UniProt P35626)", "details": "GRK3 (ADRBK2); 1000 nM"}, "[9]": {"target": "kinases (468) (Homo sapiens, UniProt Q13705)", "details": "ACVR2B; 1000 nM"}, "[10]": {"target": "kinases (468) (Homo sapiens, UniProt Q14164)", "details": "IKK-epsilon (IKBKE); 1000 nM"}, "[11]": {"target": "kinases (468) (Homo sapiens, UniProt Q9Y4K4)", "details": "MAP4K5; 1000 nM"}, "[12]": {"target": "kinases (468) (Homo sapiens, UniProt P57078)", "details": "kinase RIPK4 (Entrez RIPK4); compound concentration 1000 nM"}, "[13]": {"target": "kinases (468) (Homo sapiens, UniProt O75116)", "details": "kinase ROCK2 (Entrez ROCK2); compound concentration 1000 nM"}, "[14]": {"target": "kinases (468) (Homo sapiens, UniProt P42336, Q546K)", "details": "PIK3CA(Q546K); 1000 nM"}, "[15]": {"target": "kinases (468) (Homo sapiens, UniProt Q00535)", "details": "CDK5; 1000 nM"}, "[16]": {"target": "kinases (468) (Homo sapiens, UniProt Q92772)", "sequence (Q92772 whole entry)": "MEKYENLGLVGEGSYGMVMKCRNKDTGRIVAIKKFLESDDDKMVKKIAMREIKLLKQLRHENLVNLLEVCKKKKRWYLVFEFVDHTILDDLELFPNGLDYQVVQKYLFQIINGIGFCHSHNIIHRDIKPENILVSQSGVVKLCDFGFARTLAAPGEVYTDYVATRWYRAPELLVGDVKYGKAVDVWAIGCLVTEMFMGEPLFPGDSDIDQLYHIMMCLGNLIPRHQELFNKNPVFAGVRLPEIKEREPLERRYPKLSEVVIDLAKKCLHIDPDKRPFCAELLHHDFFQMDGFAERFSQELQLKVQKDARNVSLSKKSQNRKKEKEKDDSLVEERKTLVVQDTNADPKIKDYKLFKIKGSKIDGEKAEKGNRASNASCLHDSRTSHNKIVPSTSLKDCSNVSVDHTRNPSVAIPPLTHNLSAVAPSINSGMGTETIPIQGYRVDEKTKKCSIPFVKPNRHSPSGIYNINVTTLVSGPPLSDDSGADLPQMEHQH", "details": "CDKL2; 1000 nM"}, "[17]": {"target": "kinases (468) (Homo sapiens, UniProt P42338)", "details": "PIK3CB; 1000 nM"}, "[18]": {"target": "kinases (468) (Homo sapiens, UniProt P00519, E255K)", "sequence (P00519 whole entry E255K)": "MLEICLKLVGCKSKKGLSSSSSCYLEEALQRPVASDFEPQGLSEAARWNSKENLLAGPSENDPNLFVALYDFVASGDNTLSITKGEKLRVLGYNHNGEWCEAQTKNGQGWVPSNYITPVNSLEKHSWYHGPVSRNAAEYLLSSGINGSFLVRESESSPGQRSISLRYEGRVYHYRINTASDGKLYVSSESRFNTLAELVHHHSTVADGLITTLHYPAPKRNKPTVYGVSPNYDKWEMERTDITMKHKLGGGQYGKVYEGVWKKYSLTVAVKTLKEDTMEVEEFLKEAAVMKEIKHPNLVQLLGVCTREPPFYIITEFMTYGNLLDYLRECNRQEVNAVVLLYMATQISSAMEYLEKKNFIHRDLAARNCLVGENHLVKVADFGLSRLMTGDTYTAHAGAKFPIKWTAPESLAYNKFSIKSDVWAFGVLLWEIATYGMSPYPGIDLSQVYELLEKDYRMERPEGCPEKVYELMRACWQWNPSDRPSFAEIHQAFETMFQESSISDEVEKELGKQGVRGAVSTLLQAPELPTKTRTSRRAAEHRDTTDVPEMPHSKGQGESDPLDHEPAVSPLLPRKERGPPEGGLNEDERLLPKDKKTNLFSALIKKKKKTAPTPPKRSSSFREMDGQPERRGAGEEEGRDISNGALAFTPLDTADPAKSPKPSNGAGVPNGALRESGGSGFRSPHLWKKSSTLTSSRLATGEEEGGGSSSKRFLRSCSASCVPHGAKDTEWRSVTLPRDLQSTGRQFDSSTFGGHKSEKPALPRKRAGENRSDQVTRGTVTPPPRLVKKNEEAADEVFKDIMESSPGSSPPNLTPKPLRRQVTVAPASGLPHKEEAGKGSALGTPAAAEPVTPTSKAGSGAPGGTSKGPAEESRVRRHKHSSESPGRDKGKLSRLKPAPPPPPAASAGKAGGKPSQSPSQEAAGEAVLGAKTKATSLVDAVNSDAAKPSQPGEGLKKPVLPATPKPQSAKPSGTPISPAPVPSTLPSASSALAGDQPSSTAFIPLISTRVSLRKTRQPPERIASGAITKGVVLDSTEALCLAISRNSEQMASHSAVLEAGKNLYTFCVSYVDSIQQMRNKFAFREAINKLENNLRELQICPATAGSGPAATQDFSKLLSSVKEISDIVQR", "details": "ABL1(E255K)-phosphorylated; 1000 nM"}, "[19]": {"target": "kinases (468) (Homo sapiens, UniProt P51813)", "details": "BMX; 1000 nM"}, "[20]": {"target": "kinases (468) (Homo sapiens, UniProt Q16566)", "sequence (Q16566 whole entry)": "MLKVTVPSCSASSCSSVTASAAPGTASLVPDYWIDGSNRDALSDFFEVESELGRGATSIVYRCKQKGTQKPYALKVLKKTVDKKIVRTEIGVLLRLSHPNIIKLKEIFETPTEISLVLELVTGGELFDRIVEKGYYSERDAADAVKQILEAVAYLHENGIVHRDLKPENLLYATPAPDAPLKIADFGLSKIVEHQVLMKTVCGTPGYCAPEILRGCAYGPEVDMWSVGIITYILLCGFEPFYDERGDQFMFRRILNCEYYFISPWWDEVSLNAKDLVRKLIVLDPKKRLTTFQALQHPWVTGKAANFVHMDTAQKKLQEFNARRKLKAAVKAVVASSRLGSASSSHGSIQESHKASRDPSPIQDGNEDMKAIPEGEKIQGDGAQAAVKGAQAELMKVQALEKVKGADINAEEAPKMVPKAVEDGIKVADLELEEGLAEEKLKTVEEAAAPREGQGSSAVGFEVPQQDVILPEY", "details": "CAMK4; 1000 nM"}, "[21]": {"target": "kinases (468) (Homo sapiens, UniProt O14976)", "details": "GAK; 1000 nM"}, "[22]": {"target": "kinases (468) (Homo sapiens, UniProt Q02779)", "details": "MLK2 (MAP3K10); 1000 nM"}, "[23]": {"target": "kinases (468) (Homo sapiens, UniProt Q12851)", "details": "MAP4K2; 1000 nM"}, "[24]": {"target": "kinases (468) (Homo sapiens, UniProt Q8N4C8)", "sequence (Q8N4C8 whole entry)": "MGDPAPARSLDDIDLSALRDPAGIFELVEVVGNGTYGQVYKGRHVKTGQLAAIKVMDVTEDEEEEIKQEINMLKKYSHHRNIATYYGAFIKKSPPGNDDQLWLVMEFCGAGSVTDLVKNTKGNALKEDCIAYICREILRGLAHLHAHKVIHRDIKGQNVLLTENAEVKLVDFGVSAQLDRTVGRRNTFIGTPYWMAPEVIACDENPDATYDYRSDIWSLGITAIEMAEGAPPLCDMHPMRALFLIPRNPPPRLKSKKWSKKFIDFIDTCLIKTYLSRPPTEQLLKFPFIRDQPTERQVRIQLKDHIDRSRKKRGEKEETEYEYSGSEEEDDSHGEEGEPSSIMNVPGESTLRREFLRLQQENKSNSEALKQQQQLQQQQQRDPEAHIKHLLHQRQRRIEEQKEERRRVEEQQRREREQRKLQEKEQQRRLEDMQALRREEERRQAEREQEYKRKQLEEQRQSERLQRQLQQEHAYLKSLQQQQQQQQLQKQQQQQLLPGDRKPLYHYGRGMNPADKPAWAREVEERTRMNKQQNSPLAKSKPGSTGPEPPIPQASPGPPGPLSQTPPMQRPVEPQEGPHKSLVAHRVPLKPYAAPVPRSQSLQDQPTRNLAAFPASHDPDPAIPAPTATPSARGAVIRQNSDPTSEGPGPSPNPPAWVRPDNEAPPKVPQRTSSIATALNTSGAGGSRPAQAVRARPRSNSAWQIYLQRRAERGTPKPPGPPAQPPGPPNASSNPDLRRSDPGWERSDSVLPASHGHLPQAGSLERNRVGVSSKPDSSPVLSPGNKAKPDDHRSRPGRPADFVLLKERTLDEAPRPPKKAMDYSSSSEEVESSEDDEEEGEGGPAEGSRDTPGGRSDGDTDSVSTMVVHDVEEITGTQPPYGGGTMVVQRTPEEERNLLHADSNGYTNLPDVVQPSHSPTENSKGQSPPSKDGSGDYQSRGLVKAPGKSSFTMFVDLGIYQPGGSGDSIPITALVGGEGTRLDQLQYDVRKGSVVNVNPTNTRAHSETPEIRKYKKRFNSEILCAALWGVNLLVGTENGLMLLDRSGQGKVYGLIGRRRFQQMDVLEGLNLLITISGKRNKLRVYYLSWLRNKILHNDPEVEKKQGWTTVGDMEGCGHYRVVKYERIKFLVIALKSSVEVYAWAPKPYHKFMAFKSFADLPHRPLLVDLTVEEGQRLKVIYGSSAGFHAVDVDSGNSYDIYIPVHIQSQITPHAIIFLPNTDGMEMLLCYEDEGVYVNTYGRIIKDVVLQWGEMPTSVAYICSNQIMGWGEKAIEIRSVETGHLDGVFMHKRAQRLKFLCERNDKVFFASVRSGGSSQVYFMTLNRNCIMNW", "details": "MINK (MINK1); 1000 nM"}, "[25]": {"target": "kinases (468) (Homo sapiens, UniProt P36507)", "details": "MEK2 (MAP2K2); 1000 nM"}, "[26]": {"target": "kinases (468) (Homo sapiens, UniProt Q8TDC3)", "details": "BRSK1; 1000 nM"}, "[27]": {"target": "kinases (468) (Homo sapiens, UniProt Q13470)", "details": "kinase TNK1 (Entrez TNK1); compound concentration 1000 nM"}, "[28]": {"target": "kinases (468) (Homo sapiens, UniProt P46734)", "details": "MEK3 (MAP2K3); 1000 nM"}, "[29]": {"target": "kinases (468) (Homo sapiens, UniProt O60674)", "details": "JAK2(JH1domain-catalytic); 1000 nM"}, "[30]": {"target": "kinases (468) (Homo sapiens, UniProt P42680)", "sequence (P42680 whole entry)": "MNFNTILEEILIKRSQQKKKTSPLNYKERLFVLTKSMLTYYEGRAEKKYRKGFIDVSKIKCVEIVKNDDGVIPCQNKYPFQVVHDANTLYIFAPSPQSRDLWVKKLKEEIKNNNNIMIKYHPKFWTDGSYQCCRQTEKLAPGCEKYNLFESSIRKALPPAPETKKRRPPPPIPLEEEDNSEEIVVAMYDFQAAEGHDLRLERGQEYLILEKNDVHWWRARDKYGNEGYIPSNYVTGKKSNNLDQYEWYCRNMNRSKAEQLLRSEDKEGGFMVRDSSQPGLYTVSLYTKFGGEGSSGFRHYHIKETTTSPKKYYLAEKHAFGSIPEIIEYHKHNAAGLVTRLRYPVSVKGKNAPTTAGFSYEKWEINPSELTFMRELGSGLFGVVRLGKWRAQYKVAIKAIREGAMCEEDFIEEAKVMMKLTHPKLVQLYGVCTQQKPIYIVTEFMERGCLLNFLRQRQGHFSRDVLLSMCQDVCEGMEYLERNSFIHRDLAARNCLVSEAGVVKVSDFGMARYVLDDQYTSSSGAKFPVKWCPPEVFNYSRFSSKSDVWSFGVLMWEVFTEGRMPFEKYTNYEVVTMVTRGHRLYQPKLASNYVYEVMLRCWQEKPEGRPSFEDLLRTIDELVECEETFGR", "details": "kinase TEC (Entrez TEC); compound concentration 1000 nM"}, "[31]": {"target": "kinases (468) (Homo sapiens, UniProt P11802)", "sequence (P11802 whole entry)": "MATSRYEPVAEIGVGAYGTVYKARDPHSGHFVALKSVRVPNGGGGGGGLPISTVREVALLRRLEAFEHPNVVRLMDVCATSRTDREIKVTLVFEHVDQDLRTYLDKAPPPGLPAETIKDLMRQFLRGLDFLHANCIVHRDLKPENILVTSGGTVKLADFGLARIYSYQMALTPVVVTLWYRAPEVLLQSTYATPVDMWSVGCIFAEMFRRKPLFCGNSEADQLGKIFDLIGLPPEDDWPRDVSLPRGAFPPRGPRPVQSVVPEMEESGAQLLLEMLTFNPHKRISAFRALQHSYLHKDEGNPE", "details": "1000 nM"}, "[32]": {"target": "kinases (468) (Homo sapiens, UniProt P00519, F317I)", "sequence (P00519 whole entry F317I)": "as the sequence (P00519 whole entry E255K) above, with K255E, F317I counted along it", "details": "1000 nM"}, "[33]": {"target": "kinases (468) (Homo sapiens, UniProt P49760)", "details": "CLK2; 1000 nM"}, "[34]": {"target": "kinases (468) (Homo sapiens, UniProt O60285)", "details": "ARK5 (NUAK1); 1000 nM"}}, "note": "“And” between values parts separate entries of the source, which are not always exact repeats. Equal entries are not always repeated. Where two headings read alike, the source gives them in different places.", "data": [{"smiles": "C[C@H]1C[C@@H](O)CN(c2ncc(Cl)c(Nc3ccc4c(c3)c3c(c(=O)n4C)OCC(F)(F)[C@H](C4CC4)N3)n2)C1", "note": "[CCT373566_9A]", "values": [{"measurement": "Percent Control", "setting": "[1]", "result": 100, "unit": "%"}, {"measurement": "Percent Control", "setting": "[2]", "result": 95, "unit": "%"}, {"measurement": "Percent Control", "setting": "[3]", "result": 100, "unit": "%"}, {"measurement": "Percent Control", "setting": "[4]", "result": 100, "unit": "%"}, {"measurement": "Percent Control", "setting": "[5]", "result": 95, "unit": "%"}, {"measurement": "Percent Control", "setting": "[6]", "result": "98% and 100% and 83%"}, {"measurement": "Percent Control", "setting": "[6]; FLT3(ITD), 1000 nM", "result": 99, "unit": "%"}, {"measurement": "Percent Control", "setting": "[6]; FLT3(ITD,D835V), 1000 nM", "result": 75, "unit": "%"}, {"measurement": "Percent Control", "setting": "[7]", "result": 98, "unit": "%"}, {"measurement": "Percent Control", "setting": "[8]", "result": 100, "unit": "%"}, {"measurement": "Percent Control", "setting": "[9]", "result": 84, "unit": "%"}, {"measurement": "Percent Control", "setting": "[10]", "result": 100, "unit": "%"}, {"measurement": "Percent Control", "setting": "[11]", "result": 85, "unit": "%"}, {"measurement": "Percent Control", "setting": "[12]", "result": 100, "unit": "%"}, {"measurement": "Percent Control", "setting": "[13]", "result": 94, "unit": "%"}, {"measurement": "Percent Control", "setting": "[14]", "result": 89, "unit": "%"}, {"measurement": "Percent Control", "setting": "[15]", "result": 97, "unit": "%"}, {"measurement": "Percent Control", "setting": "[16]", "result": 100, "unit": "%"}, {"measurement": "Percent Control", "setting": "[17]", "result": 85, "unit": "%"}, {"measurement": "Percent Control", "setting": "[18]", "result": 99, "unit": "%"}, {"measurement": "Percent Control", "setting": "[19]", "result": 100, "unit": "%"}, {"measurement": "Percent Control", "setting": "[20]", "result": 100, "unit": "%"}, {"measurement": "Percent Control", "setting": "[21]", "result": 86, "unit": "%"}, {"measurement": "Percent Control", "setting": "[22]", "result": 100, "unit": "%"}, {"measurement": "Percent Control", "setting": "[23]", "result": 99, "unit": "%"}, {"measurement": "Percent Control", "setting": "[24]", "result": 87, "unit": "%"}, {"measurement": "Percent Control", "setting": "[25]", "result": 79, "unit": "%"}, {"measurement": "Percent Control", "setting": "[26]", "result": 96, "unit": "%"}, {"measurement": "Percent Control", "setting": "[27]", "result": 92, "unit": "%"}, {"measurement": "Percent Control", "setting": "[28]", "result": 100, "unit": "%"}, {"measurement": "Percent Control", "setting": "[29]", "result": 97, "unit": "%"}, {"measurement": "Percent Control", "setting": "[30]", "result": 94, "unit": "%"}, {"measurement": "Percent Control", "setting": "[31]; CDK4-cyclinD1", "result": 94, "unit": "%"}, {"measurement": "Percent Control", "setting": "[31]; CDK4-cyclinD3", "result": 95, "unit": "%"}, {"measurement": "Percent Control", "setting": "[31]; CDK4", "result": 100, "unit": "%"}, {"measurement": "Percent Control", "setting": "[32]; ABL1(F317I)-nonphosphorylated", "result": 95, "unit": "%"}, {"measurement": "Percent Control", "setting": "[32]; ABL1(F317I)-phosphorylated", "result": 90, "unit": "%"}, {"measurement": "Percent Control", "setting": "[33]", "result": 68, "unit": "%"}, {"measurement": "Percent Control", "setting": "[34]", "result": 98, "unit": "%"}]}]}
